Assay results reported in the NIST ThermoML archive (doi:10.1016/j.jct.2006.02.001).

Assays:
[1] = refractive index (Na D-line) (dimensionless); xn = mol fraction of the nth substance listed; conditions: 101 kPa, Liquid
[2] = xn = mol fraction of the nth substance listed; conditions: 101 kPa, Liquid

COc1ccccc1 [anisole] + Cc1ccccc1C
Conditions | mass density, 288.15 K [kg/m3] | mass density, 293.15 K [kg/m3] | mass density, 298.15 K [kg/m3] | mass density, 303.15 K [kg/m3] | refractive index, 288.15 K | refractive index, 293.15 K | refractive index, 298.15 K | refractive index, 303.15 K
[1], x1 = 0.0984 | – | – | – | – | 1.5091 | 1.5061 | 1.5033 | 1.5015
[1], x1 = 0.2473 | – | – | – | – | 1.5118 | 1.508 | 1.5052 | 1.5027
[1], x1 = 0.376 | – | – | – | – | 1.5141 | 1.5095 | 1.5067 | 1.5048
[1], x1 = 0.4951 | – | – | – | – | 1.516 | 1.5107 | 1.5079 | 1.5059
[1], x1 = 0.6454 | – | – | – | – | 1.5193 | 1.5128 | 1.51 | 1.508
[1], x1 = 0.7463 | – | – | – | – | 1.521 | 1.5145 | 1.5117 | 1.5096
[1], x1 = 0.864 | – | – | – | – | 1.5232 | 1.5156 | 1.5128 | 1.5107
[1], x1 = 0.938 | – | – | – | – | 1.5245 | 1.5164 | 1.5136 | 1.5114
[1], x1 = 0.9745 | – | – | – | – | 1.5252 | 1.5167 | 1.5139 | 1.5116
[1], x1 = 1 | – | – | – | – | 1.5256 | 1.5169 | 1.5141 | 1.5117
[2], x1 = 0.0984 | 894.18 | 890.01 | 886.52 | 881.84 | – | – | – | –
[2], x1 = 0.2473 | 910.8 | 906.56 | 902.92 | 898.24 | – | – | – | –
[2], x1 = 0.376 | 925.35 | 921 | 917.17 | 912.46 | – | – | – | –
[2], x1 = 0.4951 | 939.01 | 934.55 | 930.58 | 925.89 | – | – | – | –
[2], x1 = 0.6454 | 956.51 | 951.98 | 947.89 | 943.26 | – | – | – | –
[2], x1 = 0.7463 | 968.37 | 963.81 | 959.66 | 955.11 | – | – | – | –
[2], x1 = 0.864 | 982.31 | 977.72 | 973.49 | 968.92 | – | – | – | –
[2], x1 = 0.938 | 991.11 | 986.44 | 982.08 | 977.48 | – | – | – | –
[2], x1 = 0.9745 | 995.42 | 990.69 | 986.24 | 981.57 | – | – | – | –
[2], x1 = 1 | 998.44 | 993.65 | 989.15 | 984.37 | – | – | – | –

Cc1cc(C)cc(C)c1 [1,3,5-trimethylbenzene] + COc1ccccc1
Conditions | mass density, 288.15 K [kg/m3] | mass density, 293.15 K [kg/m3] | mass density, 298.15 K [kg/m3] | mass density, 303.15 K [kg/m3] | refractive index, 288.15 K | refractive index, 293.15 K | refractive index, 298.15 K | refractive index, 303.15 K
[1], x2 = 0 | – | – | – | – | 1.5045 | 1.4993 | 1.4976 | 1.4948
[1], x2 = 0.1099 | – | – | – | – | 1.5063 | 1.5009 | 1.4991 | 1.4964
[1], x2 = 0.2441 | – | – | – | – | 1.5088 | 1.5029 | 1.5011 | 1.4984
[1], x2 = 0.3933 | – | – | – | – | 1.5116 | 1.5054 | 1.5033 | 1.5007
[1], x2 = 0.509 | – | – | – | – | 1.5142 | 1.5073 | 1.5052 | 1.5026
[1], x2 = 0.672 | – | – | – | – | 1.5175 | 1.5103 | 1.5079 | 1.5054
[1], x2 = 0.749 | – | – | – | – | 1.5193 | 1.5117 | 1.5093 | 1.5068
[1], x2 = 0.8397 | – | – | – | – | 1.5214 | 1.5136 | 1.511 | 1.5086
[1], x2 = 0.895 | – | – | – | – | 1.5228 | 1.5147 | 1.5121 | 1.5097
[1], x2 = 0.967 | – | – | – | – | 1.5247 | 1.5162 | 1.5135 | 1.5111
[2], x2 = 0 | 869.17 | 865.07 | 861.06 | 856.95 | – | – | – | –
[2], x2 = 0.1099 | 880.36 | 876.24 | 872.21 | 868.07 | – | – | – | –
[2], x2 = 0.2441 | 894.89 | 890.7 | 886.62 | 882.42 | – | – | – | –
[2], x2 = 0.3933 | 912.23 | 907.95 | 903.79 | 899.5 | – | – | – | –
[2], x2 = 0.509 | 926.57 | 922.2 | 917.98 | 913.64 | – | – | – | –
[2], x2 = 0.672 | 948.28 | 943.8 | 939.52 | 935.05 | – | – | – | –
[2], x2 = 0.749 | 959.22 | 954.69 | 950.34 | 945.87 | – | – | – | –
[2], x2 = 0.8397 | 972.73 | 968.14 | 963.75 | 959.19 | – | – | – | –
[2], x2 = 0.895 | 981.31 | 976.67 | 972.25 | 967.63 | – | – | – | –
[2], x2 = 0.967 | 992.94 | 988.19 | 983.74 | 979.01 | – | – | – | –

Cc1cccc(C)c1 [1,3-dimethylbenzene] + COc1ccccc1
x2 = 0
Conditions | mass density, 288.15 K [kg/m3] | mass density, 293.15 K [kg/m3] | mass density, 298.15 K [kg/m3] | mass density, 303.15 K [kg/m3] | refractive index, 288.15 K | refractive index, 293.15 K | refractive index, 298.15 K | refractive index, 303.15 K
[1] | – | – | – | – | 1.4997 | 1.4973 | 1.4944 | 1.4925
[2] | 868.32 | 864.05 | 859.77 | 855.47 | – | – | – | –

COc1ccccc1 [anisole] + Cc1cc(C)cc(C)c1
x1 = 1
Conditions | mass density, 288.15 K [kg/m3] | mass density, 293.15 K [kg/m3] | mass density, 298.15 K [kg/m3] | mass density, 303.15 K [kg/m3] | refractive index, 288.15 K | refractive index, 293.15 K | refractive index, 298.15 K | refractive index, 303.15 K
[1] | – | – | – | – | 1.5256 | 1.5169 | 1.5141 | 1.5117
[2] | 998.44 | 993.65 | 989.15 | 984.37 | – | – | – | –

c1ccccc1 [benzene] + COc1ccccc1
x2 = 0
Conditions | mass density, 288.15 K [kg/m3] | mass density, 293.15 K [kg/m3] | mass density, 298.15 K [kg/m3] | mass density, 303.15 K [kg/m3] | refractive index, 288.15 K | refractive index, 293.15 K | refractive index, 298.15 K | refractive index, 303.15 K
[1] | – | – | – | – | 1.505 | 1.5011 | 1.4979 | 1.4849
[2] | 884.11 | 876.53 | 873.6 | 868.23 | – | – | – | –

Cc1ccccc1C [1,2-dimethylbenzene] + COc1ccccc1
x2 = 0
Conditions | mass density, 288.15 K [kg/m3] | mass density, 293.15 K [kg/m3] | mass density, 298.15 K [kg/m3] | mass density, 303.15 K [kg/m3] | refractive index, 288.15 K | refractive index, 293.15 K | refractive index, 298.15 K | refractive index, 303.15 K
[1] | – | – | – | – | 1.5072 | 1.5047 | 1.5018 | 1.5
[2] | 883.29 | 879.08 | 875.53 | 870.73 | – | – | – | –

COc1ccccc1 [anisole] + Cc1cccc(C)c1
Conditions | mass density, 288.15 K [kg/m3] | mass density, 293.15 K [kg/m3] | mass density, 298.15 K [kg/m3] | mass density, 303.15 K [kg/m3] | refractive index, 288.15 K | refractive index, 293.15 K | refractive index, 298.15 K | refractive index, 303.15 K
[1], x1 = 0.1006 | – | – | – | – | 1.5021 | 1.4992 | 1.4963 | 1.4944
[1], x1 = 0.2463 | – | – | – | – | 1.5055 | 1.5018 | 1.499 | 1.497
[1], x1 = 0.3753 | – | – | – | – | 1.5086 | 1.5042 | 1.5013 | 1.4993
[1], x1 = 0.496 | – | – | – | – | 1.5117 | 1.5065 | 1.5037 | 1.5016
[1], x1 = 0.6398 | – | – | – | – | 1.5155 | 1.5093 | 1.5065 | 1.5044
[1], x1 = 0.7468 | – | – | – | – | 1.5184 | 1.5115 | 1.5088 | 1.5066
[1], x1 = 0.8284 | – | – | – | – | 1.5206 | 1.5132 | 1.5104 | 1.5082
[1], x1 = 0.9034 | – | – | – | – | 1.5228 | 1.5149 | 1.5121 | 1.5098
[1], x1 = 0.9613 | – | – | – | – | 1.5244 | 1.5161 | 1.5133 | 1.511
[1], x1 = 1 | – | – | – | – | 1.5256 | 1.5169 | 1.5141 | 1.5117
[2], x1 = 0.1006 | 880.54 | 876.26 | 872.02 | 867.67 | – | – | – | –
[2], x1 = 0.2463 | 898.41 | 894.1 | 889.76 | 885.42 | – | – | – | –
[2], x1 = 0.3753 | 914.55 | 910.2 | 905.8 | 901.39 | – | – | – | –
[2], x1 = 0.496 | 930.02 | 925.62 | 921.19 | 916.71 | – | – | – | –
[2], x1 = 0.6398 | 948.95 | 944.45 | 940.02 | 935.48 | – | – | – | –
[2], x1 = 0.7468 | 963.38 | 958.8 | 954.36 | 949.8 | – | – | – | –
[2], x1 = 0.8284 | 974.53 | 969.91 | 965.45 | 960.86 | – | – | – | –
[2], x1 = 0.9034 | 984.93 | 980.26 | 975.77 | 971.13 | – | – | – | –
[2], x1 = 0.9613 | 993.02 | 988.29 | 983.78 | 979.08 | – | – | – | –
[2], x1 = 1 | 998.44 | 993.65 | 989.15 | 984.37 | – | – | – | –
